Patent US20230277491A1, “PHARMACEUTICAL COMBINATION COMPRISING GLYCOLIC ACID AND L-ALANINE” (priority 2020, published 2023)

Key:
dopaminergic neurons [1] = settings: after DJ-1 knock-out or paraquat treatment; cited from earlier work
patients with ALS = assay: Individualised clinical trials in ALS patients: therapeutic effect (creatine kinase, gripping force, muscle strength); settings: human patients, in some cases
Procedure: Gripping force measured in kilograms with the help of a Digital Hand Dynamometer once a week to every two weeks.
Evolution of the muscle strength on the right arm was measured once a week to every two weeks using the Janda Muscle Strength Scale.
Patients with ALS were recruited for the study and agreed to all legal regulations surrounding the curative attempt. Potential side effects were closely monitored. Liver and kidney values were checked once a week (1 day after dosing), in order to monitor whether any unwanted side effects were observed. To test the therapeutic effect, the evolution of the ALS score and strength evolution were measured over time.
All patients also received 6 grams of L-Alanine per day.
The above-mentioned treatment regime was conducted in 4 patients, either with FUS, TARDBP or SOD-1 mutations underlying their ALS. […] The patients were treated between 4 months and 17 months.

[2] = system: DJ-1 RNAi depleted HeLa cells; settings: DJ-1 RNAi depleted HeLa cells or paraquat challenge; cited from earlier work
dopaminergic neurons [3] = assay: Morphology of dopaminergic TH+ neurons in primary mesencephalic culture; assay type: cell-based, mouse; settings: 5 mM GA, FIG. 14
Procedure: Effect of GA treatment on the morphology of dopaminergic neurons. Fluorescent microscopy images on the left show to TH+ neurons in a primary mesencephalic cell culture with (GA) and without (Control) treatment. […] FIG. 16:
(§1) Primary mesencephalic neuronal cell cultures were prepared as previously described. Briefly, E14.5 embryos were obtained from C57JBL6 pregnant mice after cervical dislocation. Brain mesencephali were dissected under the microscope and digested with Trypsin-EDTA 0.12% (Life Technologies, USA) for 7 min. The trypsin reaction was then stopped by adding basic medium (BM), containing Neurobasal A medium (Gibco, USA), 1 mg/mL Pen/Strep, 10% FCS, and […] L-Glutamine, and cells were mechanically dissociated using a fire-polished Pasteur pipette. Medium was fully replaced after 5 min, centrifugation at 1200 rpm, aspiring the supernatant and adding 8 mL of fresh BM to the pellet. Concentration of cells in the medium was estimated using a Neubauer chamber and a 100 μL of medium containing 10^6 cells/mL plated per well in a 96-well plate (Greiner Sensoplate, Germany, EU). […]
[…] The effect of GA and DL on dopaminergic neurons was assessed through semi-automatic quantification of neurite length and width of TH+ neurons after treatment. […] Dopaminergic TH^+ neurons were observed using an inverted fluorescence microscope (Olympus) under a 20× objective.

[4] = human, in vivo, 15 weeks
Source text: Potential side effects were closely monitored.

dopaminergic neurons [5] = assay: Survival of dopaminergic neurons with paraquat 25 μM challenge (Example 1, FIG. 1); assay type: cell-based, mouse
Procedure: Dopaminergic neurons were isolated and plated at a concentration of 1.000.000 cells/ml (100 μl/well) in a 96 well plate and cultured in medium with one or more of the various factors indicated, as described in the examples below. The survival of dopaminergic neurons in the presence and absence of various agents of the invention, either with or without paraquat challenge, is shown by the number of TH positive neurons normalized to the control treatment.
Dopaminergic neurons were isolated and plated at a concentration of 1.000.000 cells/ml (100 μl/well) in a 96 well plate. After 3-4 hours incubation at 37° C., 20 μl of medium was removed from each well. (VF=80 μl). Changes in medium and start point of the treatment were done in the following day in vitro (DIV). The following protocol was employed in order to assess the survival of dopaminergic neurons in the presence and absence of various agents of the invention combination, either with or without paraquat challenge. • DIV.1: Change half of medium N2 (40 μl) with fresh medium N2. • DIV.3: Change half of the medium and start with medium (control) or with medium A containing LA (different concentrations) and/or GA (normally 5 mM or 10 mM). Medium A is N2 medium but without FBS and N2-Supplement. • DIV.5: Second round of control or treatment with LA and/or GA. Half of the medium (40 μl) was replaced by fresh medium A with the different agents. • DIV.7: Paraquat 25 μM treatment starts with or without GA and L-alanine. Half of the medium (40 μl) was replaced by fresh medium A with the different treatment combinations or without (control). • DIV.9: Second day of treatment with Paraquat (PQ) 25 μM in addition to the other substances (LA and GA). • DIV.10: Fixation 2% of PFA during 20 min at 37° C. or overnight at 4° C.
as §1, with “EU). Then a 20 μL of medium was removed from the well and 24 h later, ⅓ of the media was replaced with fresh BM.” for “EU).”

HeLa cells = assay: Intracellular calcium, Fluo4-AM loaded HeLa cells, fluorescent plate reader; assay type: cell-based; settings: FIG. 12
Source text: HeLa cells were loaded with Fluo4-AM and fluorescence was monitored with the help of a fluorescent plate reader. Values are normalized to the initial fluorescent value.

O=C(O)CO [GA, 2-hydroxyethanoic acid]
survival of dopaminergic neurons (dopaminergic neurons [1]): rescued the survival of dopaminergic neurons | GA dose at which efficacious doses were first observed (patients with ALS): above 70 mg/kg | mitochondrial potential [2]: maintain or rescue mitochondrial potential | morphology of dopaminergic neurons (neurite and axon length, secondary ramifications) (dopaminergic neurons [3]): increases the length of the neurites and the main axon and the number of secondary ramifications | GA dose at which reactive instant feces deposition was observed [4]: above 120 mg/kg | GA dose leading to reactive instant feces deposition [4]: higher than 150 mg/kg | survival of dopaminergic neurons (rescue) (dopaminergic neurons [5]; 5 mM GA with PQ 25 μM): rescue over PQ treatment alone | survival of dopaminergic neurons (rescue) (dopaminergic neurons [5]; 10 mM GA with PQ 25 μM): rescued completely | intracellular calcium (Fluo4-AM fluorescence normalized to initial value) (HeLa cells): reduce intracellular calcium
